Assay results taken from patent publication US20080287653A1, “METHOD FOR PRODUCING INHIBITORS AND INHIBITORS FORMED THEREFROM” (THE UNIVERSITY OF AKRON, priority 2007, published 2008).
Non-standard residues stand in square brackets, D forms with d. Residues, ends and D or L forms follow the SMILES beside them. Lys(Thioacetyl) = CC(=S)NCCCC[C@H](N)C(=O)O

How the values were obtained:
HDAC8 = target: T1, HDAC8 (Homo sapiens, UniProt Q9BY41); assay: HPLC-based assay with purified HDAC8 (de(thio)acetylation of peptides); type: biochemical; set-up: key to HDAC8 (sensitive / resistant to HDAC8): +: Sensitive to HDAC8; —: Resistant to HDAC8; conditions: for formation of de(thio)acetylated peptide product by HDAC8: 0.3 mM peptide, 1.5 μM HDAC8, 2 hours at room temperature; for HDAC8 (sensitive / resistant to HDAC8): enzymatic dethioacetylation by HDAC8
T1 construct: purchased
T1 sequence (Q9BY41 1-377): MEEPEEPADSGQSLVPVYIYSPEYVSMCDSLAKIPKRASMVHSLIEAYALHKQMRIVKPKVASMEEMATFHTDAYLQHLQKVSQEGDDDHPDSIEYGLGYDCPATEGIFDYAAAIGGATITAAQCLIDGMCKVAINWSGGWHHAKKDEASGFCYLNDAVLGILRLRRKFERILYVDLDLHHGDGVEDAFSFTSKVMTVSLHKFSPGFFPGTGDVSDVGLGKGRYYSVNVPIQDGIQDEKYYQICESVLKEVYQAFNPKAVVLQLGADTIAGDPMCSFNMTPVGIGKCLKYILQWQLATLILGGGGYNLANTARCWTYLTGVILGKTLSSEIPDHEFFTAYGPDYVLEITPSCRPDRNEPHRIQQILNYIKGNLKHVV
Procedure: To test the foregoing premise, peptides 1b, 2, and 3a were allowed to be incubated for 2 hours at room temperature in the HDAC8 assay buffer in a HPLC-based HDAC8 assay. […] FIG. 5 provides representative HPLC chromatograms from HDAC8 assays with peptides 1b, 2, and 3a. All assays were performed in duplicate and essentially the same HPLC chromatograms were obtained for the duplicates. The small peak with tR˜27 minutes in the second chromatogram was from a minor impurity in the purified peptide 2 sample, rather than the dethioacetylated product. The lack of detectable dethioacetylation of peptide 3a was apparent from the absence of a peak with tR˜34 minutes, shown for peptide 3c in the third chromatogram.
Assay with purified HDAC8. The purified HDAC8 could be obtained from a commercial source for use with a HPLC-based HDAC8 assay. In brief, a HDAC8 assay solution had the following components: 25 mM Tris.HCl (pH 8.0), 137 mM NaCl, 2.7 mM KCl, 1 mM MgCl2, 1 mg/mL BSA (SIGMA Cat. #A3803 with reduced fatty acid content), 0.3 mM peptide 1b, 2, or 3a, and 1.5 μM HDAC8. […] An enzymatic reaction was initiated by the addition of HDAC8 at room temperature and was allowed to be incubated at room temperature for 2 hours before being quenched with the following stop solution: 1.0 M HCl and 0.16 M acetic acid. The quenched assay solutions were directly injected into a reversed-phase HPLC C18 column (100 Å, 0.46×25 cm), eluting with the following gradients of ddH2O containing 0.05% (v/v) trifluoroacetic acid (mobile phase A) and acetonitrile containing 0.05% (v/v) trifluoroacetic acid (mobile phase B): linear increase from 0% B to 35% B (for the assay with peptide 2 or 1b) or 40% B (for the assay with peptide 3a or […]) from 0-40 minutes (1 mL/min), and UV monitoring at 214 nm. […] The enzymatically formed peptide 1c was confirmed by its comigration with the chemically synthesized authentic sample and by MALDI-TOF mass spectrometric analysis, and was quantified by HPLC peak integration and comparison with that of synthetic authentic sample.

SIRT2 = target: T2, SIRT2 (Homo sapiens, UniProt Q8IXJ6); assay: HPLC-based SIRT2 inhibition assay with purified SIRT2; type: biochemical; conditions: SIRT2 vs SIRT3
T2 construct: purchased
T2 sequence (Q8IXJ6 1-389): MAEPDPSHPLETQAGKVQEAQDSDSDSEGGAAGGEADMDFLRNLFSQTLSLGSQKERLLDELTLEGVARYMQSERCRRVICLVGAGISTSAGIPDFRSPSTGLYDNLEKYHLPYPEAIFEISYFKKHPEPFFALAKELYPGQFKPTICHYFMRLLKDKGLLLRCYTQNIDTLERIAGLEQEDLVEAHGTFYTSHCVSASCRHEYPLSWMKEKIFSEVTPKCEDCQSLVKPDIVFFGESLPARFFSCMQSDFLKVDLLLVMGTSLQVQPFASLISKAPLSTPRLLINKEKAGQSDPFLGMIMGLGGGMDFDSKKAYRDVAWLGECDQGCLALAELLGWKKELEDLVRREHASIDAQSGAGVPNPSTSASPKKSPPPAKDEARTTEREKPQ
Procedure: Inhibition assays with purified SIRT1, SIRT2, and SIRT3. GST-SIRT1 that could be produced in a laboratory was used for the SIRT1 inhibition assay. SIRT2 and SIRT3 are obtainable from commercial sources known to those skilled in the art. Consistent HPLC-based assay procedures were used for the inhibition assays with SIRT1, SIRT2, and SIRT3. In brief, an inhibition assay solution had the following components: 25 mM (or 50 mM for SIRT2 assay) Tris.HCl (pH 8.0) 137 mM NaCl, 2.7 mM KCl, 1 mM MgCl2, 1 mg/mL BSA (SIGMA Cat. #A3803 with reduced fatty acid content, for SIRT2 assay only), 0.5 mM β-NAD^+, 0.3 mM peptide substrate (peptide 1b for SIRT1 and SIRT2 assays; peptide 3b for SIRT3 assay), an inhibitor (peptide 1a, 2, or 3a) with varied concentrations including 0, and an enzyme (GST-SIRT1, 0.15 μM; SIRT2, 0.3 μM; or SIRT3, 2.0 μM). […] An enzymatic reaction was initiated by the addition of an enzyme at 37° C. and was allowed to be incubated at 37° C.: 10 minutes as follows: for SIRT1 assay, or 60 minutes for SIRT2 and SIRT3 assays. […] The enzymatic deacetylation products (peptide 1c in SIRT1 and SIRT2 assays; peptide 3c in SIRT3 assay) were confirmed by their comigration with the chemically synthesized authentic samples and by MALDI-TOF mass spectrometric analysis, and were quantified by HPLC peak integration and comparison with those of synthetic authentic samples. […]

Row | formation of de(thio)acetylated peptide product by HDAC8 (HDAC8) | HDAC8 (sensitive / resistant to HDAC8) (HDAC8) | inhibition potency for SIRT2 relative to SIRT3 (SIRT2) | Compound
1 | no detectable formation | —^d |  | CC[C@H](C)[C@H](NC(=O)[C@@H](NC(=O)[C@H](CCCCNC(C)=S)NC(=O)[C@H](CC(=O)O)NC(=O)[C@H](CO)NC(=O)[C@@H]1CCCN1C(=O)[C@@H](N)CCSC)[C@@H](C)O)C(=O)NCC(=O)NCC(=O)O [Peptide 2] (H-MPSD[Lys(Thioacetyl)]TIGG-OH)
2 | no detectable formation | — | comparably potent inhibitor | CC[C@H](C)[C@H](NC(=O)[C@@H](NC(=O)[C@H](CCCCN)NC(=O)[C@H](CCCNC(=N)N)NC(=O)[C@H](CC(C)C)NC(=O)[C@H](CC(C)C)NC(=O)[C@H](CCCNC(=N)N)NC(=O)[C@H](CCCNC(=N)N)NC(=O)[C@H](CCSC)NC(=O)[C@@H](NC(=O)[C@H](CCCCNC(C)=S)NC(=O)CNC(=O)[C@H](CO)NC(=O)[C@H](CCCNC(=N)N)NC(=O)[C@@H](NC(=O)[C@H](CCCCN)NC(=O)[C@@H]1CCCN1C(=O)[C@H](CC(C)C)NC(=O)[C@H](CCCNC(=N)N)NC(=O)[C@@H](N)CCCCN)[C@@H](C)O)C(C)C)[C@@H](C)CC)C(=O)O [Peptide 3a] (H-KRLPKTRSG[Lys(Thioacetyl)]VMRRLLRKII-OH)
